Data published in US10849990B2 (priority 2018, dated 2020).

What was measured:
SPR-KO mice [1] = settings: mouse, in vivo
VL neurons = test: In vivo spike recording of spontaneous rebound firing in SPR-KO mice; settings: mouse
SPR-KO mice [2] = test: Tremor test in SPR-KO mice; settings: mouse, in vivo

Row | SMILES | motor problems (akinesia, gait disturbance, tremor) (SPR-KO mice [1]) | spontaneous rebound firing of VL neurons (VL neurons) | abnormal motor functions (tremor score) (SPR-KO mice [2])
1 | N[C@@H](Cc1ccc(O)c(O)c1)C(=O)O [L-DOPA] | ameliorated | – | –
2 | CCC1(C)CC(=O)NC1=O (stereo not drawn) [ethosuximide] | – | reduced spontaneous rebound firing | ameliorated
